Data: US20230348453A1, “HALOGENATED-HETEROARYL AND OTHER HETEROCYCLIC KINASE INHIBITORS, AND USES THEREOF” (iOmx Therapeutics AG, priority 2020, published 2023)
Like-named read-outs stand apart in the source and are kept apart here.

Columns and labels:
SIK2 = SIK2 (Homo sapiens (Human), UniProt Q9H0K1); assay: SIK2 kinase inhibition (IC50)
SIK3 [1] = target: T1, SIK3 (Homo sapiens (Human), UniProt Q9Y2K2); assay: SIK3 kinase inhibition (IC50)
SRC (GST-HIS-tag) = SRC (GST-HIS-tag) (Homo sapiens (Human), UniProt P12931); assay type: biochemical
SIK3 [2] = target: T1, SIK3; conditions: read-out: SIK3 IC50
[3] = microsomes
[4] = microsomes; remark: listed apart in the source
in vitro [5] = conditions: human, microsomes
in vitro [6] = conditions: mouse, microsomes
[7] = Human plasma-protein binding; conditions: for recovery at 4 h: human, plasma
[8] = Murine plasma protein binding; conditions: for recovery at 4 h: mouse, plasma
[9] = mouse, in vivo, po, 30 mg/kg
[10] = system: HDAC4 phosphorylation in PANC-1 cells; assay: HDAC4 phosphorylation (Meso Scale Discovery assay); conditions: 10 ng/mL rHuTNF, 3 h (Table 9C)
[11] = system: NFKB activity in PANC-1 cells; assay: TNF-induced NFKB activity (NFKB-dependent luciferase reporter); conditions: 10 ng/ml rHuTNF, PANC-1 reporter cells (Table 9C)
[12] = system: MC38 murine tumour cell line; assay: TNF-sensitised cell viability assay (CellTiter-Glo); conditions: read-out: MC38 IC50 (nM at 100 ng/mL TNF); 100 ng/mL TNF, 72 h
[13] = Human hepatocyte stability; assay type: in vitro ADME; conditions: human, hepatocytes; for half-life: read-out: Human hepatocyte stability, Half-life; for microsomal CLint: read-out: Human hepatocyte stability, Intrinsic clearance
[14] = Mouse hepatocyte stability; assay type: in vitro ADME; conditions: hepatocytes; for microsomal CLint: read-out: Mouse hepatocyte stability, Intrinsic clearance
MDR1 (P-gp) = MDR1 (P-gp) (Homo sapiens (Human), UniProt P08183); assay: MDR1-MDCK effective efflux assay; conditions: dog; for Papp: MDCK-MDR1; for efflux ratio: Table 5.1B
[15] = MDCK wild type permeability/efflux; conditions: dog
[16] = Screening PK in mice after 30 mg/kg po; conditions: for Cmax at 2 h / concentration at 6 h: mouse, plasma, po, 30 mg/kg
[17] = read-out: Kinase: IC50 (nM) SIK2
[18] = MDCK-MDR1, MDCK-MDR1 cells, Mean Efflux Ratio (MDR1)
[19] = MDCK-MDR1, P-gP driven efflux ratio (MDR1/wt)
[20] = Free plasma concentration after 6 h (nM), mice, 30 mg/kg po, 6 h
[21] = Plasma concentration after 6 h (nM), mice, 30 mg/kg po, 6 h

`Cc1nc(Nc2ncc(C(=O)Nc3c(Cl)csc3F)s2)cc(N2CCN(CCO)CC2)n1` [Compound E2, N-(4-chloro-2-fluorothiophen-3-yl)-2-((6-(4-(2-hydroxyethyl)piperazin-1-yl)-2-methylpyrimidin-4-yl)amino)thiazole-5-carboxamide] gave an IC50 (SIK2; [17]) of less than 10 nM and an IC50 (SIK3 [1]) of 50 to 100 nM.

In the case of `Cc1nc(Nc2ncc(C(=O)Nc3c(C)cncc3Cl)s2)cc(N2CCN(CCO)CC2)n1` [Compound C4, N-(3-chloro-5-methylpyridin-4-yl)-2-((6-(4-(2-hydroxyethyl)piperazin-1-yl)-2-methylpyrimidin-4-yl)amino)thiazole-5-carboxamide], the IC50 (SRC (GST-HIS-tag)) is reported as less than 1.5 nM, the IC50 (SIK3 [2]) is reported as 677 nM and the Human liver microsomal stability, Intrinsic clearance [3] is reported as 115 µL/min/mg. For the same compound, the Mouse liver microsomal stability, Intrinsic clearance (L/min/mg) [4] was 38 µL/min/mg, the half-life (in vitro [5]) was 12 min and the half-life (in vitro [6]) was 37 min. For the same compound, the “Human plasma-protein binding, Percentage unbound (%)” value ([7]; Table 5A) was 2% and the “Murine plasma protein binding, Percentage unbound (%)” value ([8]; Table 5A) was 14%.

Work on `Cc1nc(Nc2ncc(C(=O)Nc3c(C)ccnc3C)s2)cc(N2CCN(CCO)CC2)n1` [Compound C1, N-(2,4-dimethylpyridin-3-yl)-2-((6-(4-(2-hydroxyethyl)piperazin-1-yl)-2-methylpyrimidin-4-yl)amino)thiazole-5-carboxamide] yielded an IC50 (SRC (GST-HIS-tag)) of less than 1.5 nM and an IC50 (SIK3 [2]) of 867 nM.

For `Cc1nc(Nc2ncc(C(=O)Nc3c(CF)csc3Cl)s2)cc(N2CCN(C)C(C)C2)n1` (single isomer, unassigned) [Compound E10-Ent-II, N-(2-chloro-4-(fluoromethyl)thiophen-3-yl)-2-((6-(3,4-dimethylpiperazin-1-yl)-2-methylpyrimidin-4-yl)amino)thiazole-5-carboxamide], the “IC50 against SIK3 relative to IC50 of E10-Ent-I” value (SIK3 [1]; separated enantiomers) was “approximately half”.

`Cc1nc(Nc2ncc(C(=O)Nc3c(C)cncc3C)s2)cc(N2CCN(CCO)CC2)n1` [Compound C5, N-(3,5-dimethylpyridin-4-yl)-2-((6-(4-(2-hydroxyethyl)piperazin-1-yl)-2-methylpyrimidin-4-yl)amino)thiazole-5-carboxamide] gave an IC50 (SRC (GST-HIS-tag)) of less than 1.5 nM and an IC50 (SIK3 [2]) of 340 nM.

For `Cc1nc(Nc2ncc(C(=O)Nc3c(C)csc3Cl)s2)cc(N2CCN(C)CC2)n1` [Compound D9], the IC50 (SIK3 [2]) was roughly 60 nM, the “Free concentration (nM) at 2 hours” value [9] was 44 nM and the “Free concentration (nM) at 6 hours” value [9] was 8 nM. The “Free concentration (nM) at 12 hours” value [9] was 2.71 nM, the “Inhibition of HDAC4 phosphorylation” value [10] was “+” and the “Inhibition of NFKB activity” value [11] was “+”.

With `Cc1nc(Nc2ncc(C(=O)Nc3c(Cl)csc3C)s2)cc(N2CCN(CCO)CC2)n1` [Compound D1] the “Free concentration (nM) at 2 hours” value [9] was 80 nM, the “Free concentration (nM) at 6 hours” value [9] was 4 nM and the “Free concentration (nM) at 12 hours” value [9] was 2.14 nM. The IC50 [12] was less than 200 nM.

`Cc1nc(Nc2ncc(C(=O)Nc3c(Cl)csc3F)s2)cc(N2CCN(C)CC2)n1` [Compound E15, N-(4-chloro-2-fluorothiophen-3-yl)-2-((2-methyl-6-(4-methylpiperazin-1-yl)pyrimidin-4-yl)amino)thiazole-5-carboxamide] gave an IC50 (SIK2; [17]) of less than 20 nM and an IC50 (SIK3 [1]) of 20 to 50 nM.

In the case of `Cc1nc(Nc2ncc(C(=O)Nc3cccnc3C)s2)cc(N2CCN(CCO)CC2)n1` [Compound C6, 2-((6-(4-(2-hydroxyethyl)piperazin-1-yl)-2-methylpyrimidin-4-yl)amino)-N-(2-methylpyridin-3-yl)thiazole-5-carboxamide], the IC50 (SRC (GST-HIS-tag)) is reported as less than 1.5 nM and the IC50 (SIK3 [2]) is reported as 987 nM.

Work on `Cc1nc(Nc2ncc(C(=O)Nc3c(Br)ccnc3C)s2)cc(N2CCN(CCO)CC2)n1` [Compound C3, N-(4-bromo-2-methylpyridin-3-yl)-2-((6-(4-(2-hydroxyethyl)piperazin-1-yl)-2-methylpyrimidin-4-yl)amino)thiazole-5-carboxamide] yielded an IC50 (SIK3 [2]) of 2780 nM.

In the case of `Cc1nc(Nc2ncc(C(=O)Nc3c(Cl)csc3Cl)s2)cc(N2CCN(CCO)CC2)n1` [Compound D7], the “Free concentration (nM) at 2 hours” value [9] is reported as 43 nM, the “Free concentration (nM) at 6 hours” value [9] is reported as 5 nM and the “Free concentration (nM) at 12 hours” value [9] is reported as 1.10 nM.

For `Cc1nc(Nc2ncc(C(=O)Nc3c(CF)csc3Cl)s2)cc(N2CCCN(C)CC2)n1` [Compound E11, N-(2-chloro-4-(fluoromethyl)thiophen-3-yl)-2-((2-methyl-6-(4-methyl-1,4-diazepan-1-yl)pyrimidin-4-yl)amino)thiazole-5-carboxamide], the half-life [13] was 26 min, the microsomal CLint [13] was 55 µL/min/mg and the half-life [14] was 56 min. It also gave a microsomal CLint [14] of 25 µL/min/mg, a half-life (in vitro [5]) of 19 min and a microsomal CLint (in vitro [5]) of 72 µL/min/mg. For the same compound, the half-life (in vitro [6]) was 21 min, the microsomal CLint (in vitro [6]) was 66 µL/min/mg and the IC50 (SIK2; [17]) was less than 10 nM. The IC50 (SIK3 [1]) was 20 to 50 nM, the “Human plasma-protein binding, Percentage unbound (%)” value ([7]; Table 5.1A) was 3% and the recovery at 4 h [7] was 77%. For the same compound, the “Murine plasma protein binding, Percentage unbound (%)” value ([8]; Table 5.1A) was 1%, the recovery at 4 h [8] was 98% and the Papp (MDR1 (P-gp)) was 3 ×10⁻⁶ cm/s. For the same compound, the efflux ratio (MDR1 (P-gp); [18]) was 61, the efflux ratio (MDR1 (P-gp); [19]) was 24 and the Papp [15] was 8 ×10⁻⁶ cm/s. For the same compound, the efflux ratio [15] was 2.6, the “fold improvement of free serum concentration over C7” value ([16]; mice, 30 mg/kg po, 6 h) was 2 fold and the “fold improvement of total serum concentration over C7” value ([16]; mice, 30 mg/kg po, 6 h) was 3.1 fold. It also gave a Cmax at 2 h [16] of 487 ng/mL, a concentration at 6 h [16, 20] of 7.7 nM and a concentration at 6 h [16, 21] of 219 nM.

`CC(=O)N1CCN(c2cc(Nc3ncc(C(=O)Nc4c(C)csc4Cl)s3)nc(C)n2)CC1` [Compound D8] gave an IC50 (SIK3 [2]) of roughly 150 nM.

Compound `Cc1nc(NCCO)cc(Nc2ncc(C(=O)Nc3c(Cl)ccnc3C)s2)n1` [Compound C11, N-(4-chloro-2-methylpyridin-3-yl)-2-((6-((2-hydroxyethyl)amino)-2-methylpyrimidin-4-yl)amino)thiazole-5-carboxamide] has an IC50 (SRC (GST-HIS-tag)) of less than 1.5 nM and an IC50 (SIK3 [2]) of 1510 nM.

Compound `Cc1nc(Nc2ncc(C(=O)Nc3c(CF)csc3Cl)s2)cc(N2CCNC(=O)C2)n1` [Compound E12, N-(2-chloro-4-(fluoromethyl)thiophen-3-yl)-2-((2-methyl-6-(3-oxopiperazin-1-yl)pyrimidin-4-yl)amino)thiazole-5-carboxamide] has an IC50 (SIK2; [17]) of less than 20 nM and an IC50 (SIK3 [1]) of 50 to 100 nM.

Work on `Cc1nc(Nc2ncc(C(=O)Nc3c(C(F)F)csc3Cl)s2)cc(N2CCN(C)CC2)n1` [Compound E13, N-(2-chloro-4-(difluoromethyl)thiophen-3-yl)-2-((2-methyl-6-(4-methylpiperazin-1-yl)pyrimidin-4-yl)amino)thiazole-5-carboxamide] yielded an IC50 (SIK2; [17]) of less than 10 nM and an IC50 (SIK3 [1]; read-out: Kinase: IC50 (nM) SIK3) of less than 20 nM.

With `Cc1nc(Nc2ncc(C(=O)Nc3c(CF)csc3Cl)s2)cc(N2CCN(CCO)CC2)n1` [Compound E3, N-(2-chloro-4-(fluoromethyl)thiophen-3-yl)-2-((6-(4-(2-hydroxyethyl)piperazin-1-yl)-2-methylpyrimidin-4-yl)amino)thiazole-5-carboxamide] the half-life [13] was 34 min, the microsomal CLint [13] was 41 µL/min/mg and the half-life [14] was 63 min. For the same compound, the microsomal CLint [14] was 22 µL/min/mg, the half-life (in vitro [5]) was 16 min and the microsomal CLint (in vitro [5]) was 86 µL/min/mg. For the same compound, the half-life (in vitro [6]) was 18 min, the microsomal CLint (in vitro [6]) was 76 µL/min/mg and the IC50 (SIK2; [17]) was less than 10 nM. For the same compound, the IC50 (SIK3 [1]) was 20 to 50 nM, the “Human plasma-protein binding, Percentage unbound (%)” value ([7]; Table 5.1A) was 2% and the recovery at 4 h [7] was 76%. For the same compound, the “Murine plasma protein binding, Percentage unbound (%)” value ([8]; Table 5.1A) was 4%, the recovery at 4 h [8] was 89% and the Papp (MDR1 (P-gp)) was 2 ×10⁻⁶ cm/s. For the same compound, the efflux ratio (MDR1 (P-gp); [18]) was 53, the efflux ratio (MDR1 (P-gp); [19]) was 12 and the Papp [15] was 7 ×10⁻⁶ cm/s. For the same compound, the efflux ratio [15] was 4.3, the Cmax at 2 h [16] was 889 ng/mL and the concentration at 6 h [16, 20] was 3.7 nM. For the same compound, the concentration at 6 h [16, 21] was 73 nM.

Work on `Cc1nc(Nc2ncc(C(=O)Nc3c(C(F)(F)F)csc3Cl)s2)cc(N2CCN(CCO)CC2)n1` [Compound E5, N-(2-chloro-4-(trifluoromethyl)thiophen-3-yl)-2-((6-(4-(2-hydroxyethyl)piperazin-1-yl)-2-methylpyrimidin-4-yl)amino)thiazole-5-carboxamide] yielded an IC50 (SIK2) of 20 to 50 nM and an IC50 (SIK3 [1]) of 50 to 100 nM.
